Biological target: T1, mTAAR7f (Mus musculus, UniProt Q5QD08)
T1 sequence (Q5QD08 1-358): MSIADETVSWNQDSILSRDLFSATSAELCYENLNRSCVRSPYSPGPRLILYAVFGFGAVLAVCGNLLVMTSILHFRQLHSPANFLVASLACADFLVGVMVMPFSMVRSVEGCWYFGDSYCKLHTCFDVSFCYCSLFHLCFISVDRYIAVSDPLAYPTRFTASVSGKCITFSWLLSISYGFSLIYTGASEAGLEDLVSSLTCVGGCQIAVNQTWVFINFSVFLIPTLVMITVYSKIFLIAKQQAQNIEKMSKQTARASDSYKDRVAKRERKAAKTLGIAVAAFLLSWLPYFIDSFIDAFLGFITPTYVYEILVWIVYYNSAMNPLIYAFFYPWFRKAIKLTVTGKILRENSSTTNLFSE
Assay: CRE-SEAP reporter gene assay in HEK293 cells transfected with mTAAR7f
Format: cell-based
Parameters: Full Taar coding regions were cloned into pcDNA3.1; expressed in transfected cells; host or cells: HEK293
Conditions: FIG. 11B, not the mutant mTAAR7f-SS, functional with or without 'Rho tag', EC50 ± s.e.m., 4-parameter Hill equation
Method: FIG. 11 illustrates the dose-dependent responses of TAARs to amines. HEK293 cells were cotransfected with plasmids encoding CRE-SEAP and rTAARs (a) or mTAARs (b), incubated with concentrations of ligands indicated, and assayed for reporter activity (triplicates±s.d.). EC50 values (±s.e.m, bottom right) were calculated using SigmaPlot (Systat Software) and a 4-parameter Hill equation.
Chemicals tested for the ability to activate mouse TAARs include those previously described (Liberles, S. D., and Buck, L. B. (2006) A second class of chemosensory receptors in the olfactory epithelium, Nature 442, 645-650), as well as the following mixes (5 μM of each indicated compounds). Mix 1: N,N-dimethyl-cyclohexylamine, N,N-dimethyl-phenylethylamine, creatinine, taurine. […]
Full Taar coding regions were cloned into pcDNA3.1-(Invitrogen) with or without a 5′ DNA extension of 69 bp encoding the first 20 amino acids of bovine rhodopsin followed by a cloning linker ([…]). […] Fluorescence was measured on an EnVision plate reader (Perkin Elmer) and SEAP activity graphed as relative fluorescence of a phosphatase substrate.
Here, we set out to identify agonists for additional mouse and rat TAARs. […] Transfected cells were incubated with test chemicals, and phosphatase activity was quantified with a fluorescent substrate as a reporter for TAAR activation. […]

## CN(C)C1CCCCC1 [N,N-DIMETHYLCYCLOHEXYLAMINE, N,N-dimethylcyclohexylamine]
  EC50: 440 ± 130 nM

Reference: patent US20140221499A1, “NOVEL RODENT CONTROL AGENTS AND USES THEREOF” (priority 2011, published 2014)
